PMC10065799, “High-throughput profiling of sequence recognition by tyrosine kinases and SH2 domains using bacterial peptide display” (eLife, 2023)
Values belong to the sequence of their own block, whether it stands above or below them.

What was measured:
Test in all cases: pTyr-Var library bacterial peptide display kinase screen (enrichment scores)
[1] = system: Fer kinase domain; format: biochemical, mouse; conditions: sheet "Fer";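 further: log2 fold change in enrichment of variant over reference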
[2] = target: c-Src kinase domain (Homo sapiens, UniProt P12931); format: biochemical; conditions: sheet "Src";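 further: log2 fold change in enrichment of variant over reference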
[3] = target: T1, c-Abl kinase domain (Mus musculus, UniProt P00520); format: biochemical;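 on screen: log2 fold change in enrichment of variant over reference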
T1 sequence (P00520 242-493 limits assumed): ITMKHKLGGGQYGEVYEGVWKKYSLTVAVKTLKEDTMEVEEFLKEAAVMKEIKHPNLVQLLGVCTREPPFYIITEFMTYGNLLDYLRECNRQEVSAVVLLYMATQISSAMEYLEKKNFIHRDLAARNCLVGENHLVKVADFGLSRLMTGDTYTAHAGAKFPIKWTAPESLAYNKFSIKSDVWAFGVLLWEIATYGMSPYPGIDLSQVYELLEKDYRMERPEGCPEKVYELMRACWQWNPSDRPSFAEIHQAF

[4] = system: EPHB1 kinase domain; format: biochemical, human; conditions: for Screen: sheet EPHB1, effect of the variant peptide relative to its reference peptide in the pTyr-Var library screen (enrichment scores); for Screen (variant relative to reference peptide, measured in the pTyr-Var library screen): sheet "EPHB1", variant seq vs reference seq, bacterial peptide display enrichment
[5] = system: EPHB2 kinase domain; format: biochemical, human; conditions: sheet EPHB2; effect of variant peptide relative to its reference peptide in the pTyr-Var library screen (enrichment scores);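 further: log2 fold change in enrichment of variant over reference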
[6] = value of the variant peptide against its reference peptide in the pTyr-Var library screen with Fer
[7] = effect of the variant peptide relative to its reference peptide in the pTyr-Var library screen
[8] = sheet "Abl", effect of variant peptide relative to its reference peptide in pTyr-Var library screen (enrichment)
[9] = fig5-data2, sheet "Abl", Screen for the variant/reference peptide pair, pTyr-Var library
[10] = variant peptide versus its reference peptide in the pTyr-Var library screen
[11] = variant peptide relative to its reference peptide, pTyr-Var library screen enrichment

Sequence: KFADVYVGICL [B3GALNT1_Y269_E266A]
Screen [1, 6]: -1.445
Screen [2, 7]: -1.369

Sequence: LINSVYGCSRQ [TMPRSS6_Y290_T287N]
Screen [2, 10]: 1.631

Sequence: LFMGDYVGRGF [PPP2CA_Y86_D88G_YF]
Screen [4]: 1.681
Screen [2, 10]: 1.98

Sequence: QPRDIYHQTWA [GBA_Y244_G241R]
Screen [2, 7]: -0.7899

Sequence: KGEDFYSVTCH [FHL1_Y149_C150S]
Screen [1, 6]: 2.793
Screen [2, 7]: 2.7

Sequence: FLLRVYSIFSK [SGCE_Y38_T36R]
Screen [2, 10]: -1.068

Sequence: KSFDMYSGDVM [FAM3D_Y122_A118S]
Screen [4]: 0.345

Sequence: KTGDFYDLFGG [PTPN11_Y63_N58K_YF]
Screen [1, 11]: -1.345
Screen [2, 10]: -0.7427

Sequence: FVSLIYTNFEA [GSTP1_Y109_I105V_YF]
Screen [1, 6]: 0.7121
Screen [2, 7]: 0.3433

Sequence: VKANTYEKFWL [GATM_Y100_P105L_YF]
Screen [1, 6]: 2.288
Screen [2, 7]: -1.276

Sequence: PVADPYDQSFE [P38A Y323]
Enrichment score (mean) ([3]; pTyr-Var library bacterial peptide display screen with c-Abl, 11-residue peptides (SITE_+/-5_AA) of annotated Abl substrate sites, sheet "Abl substrates", mean): 2.375

Sequence: KMKGEYFRFLA [YWHAG_Y130_D129E_YF]
Screen [3, 8]: -2.114
Screen [2, 10]: 0.3869

Sequence: AVARMYGVLPW [PLP1_Y207_D203V]
Screen [5]: -2.007
Screen [2, 10]: -1.597

Sequence: LPEHPYHSRPR [NDUFA8_Y142_N140H]
Screen [5]: 1.643
Screen [3, 9]: -0.8491
Screen [2, 10]: -0.5324

Sequence: DWWQEYVLNES [TGM1_Y267_R264W]
Screen [2, 10]: 1.594

Sequence: VQEDIYDEFVV [ALDH2_Y332_E337V]
Screen [1, 6]: 3.107
Screen [2, 7]: 0.8946

Sequence: SEHLIYLEFKS [RASGRP1_Y215_T214I]
Screen [4]: 0.7598
Screen [3, 9]: 0.2716
Screen [2, 10]: 0.01051

Sequence: ACQSLYGGFVE [MVD_Y164_R161Q]
Screen [5]: 1.328
Screen [2, 7]: 0.09261

Sequence: SKLTIYDGRPS [MTM1_Y277_A279G]
Screen [2, 7]: -1.75

Sequence: KAEQLYIGVTV [EFHC2_Y509_E507Q]
Screen [1, 6]: 0.3011
Screen [2, 7]: 0.06421

Sequence: PLSGEYFTLQI [TP53_Y327_D324S]
Screen (variant relative to reference peptide, measured in the pTyr-Var library screen) [4]: 0.4408
Screen [3, 8]: -0.7361
Screen [2, 10]: -0.1322

Sequence: LHQSTYQCFDV [SLC7A14_Y693_R695C_YF]
Screen (variant relative to reference peptide, measured in the pTyr-Var library screen) [4]: 1.159
Screen [1, 11]: 1.307
Screen [2, 10]: 0.927

Other lines, results leading:

Screen [3, 8]: 1.481
Sequence: ELAVNYQEQAS [SLC9A9_Y591_I589V]

Screen [3, 9]: -0.2234
Sequence: HPAGNYSLSSV [ARFGAP3_Y473_Q468H]

Screen [3, 9]: 1.494
Sequence: ARKCKYFKKHE [NFIX_Y40_R38C]

Screen [3, 9]: 0.59
Sequence: VVQGLYKSMRK [KBTBD2_Y250_P254R]

Screen [3, 9]: 0.1866
Sequence: PIGRKYKKVRF [F8_Y442_R437P]

Screen [1, 6]: 3.343
Sequence: GMTLSYLFWEP [NDUFS8_Y74_R77W]

Screen [5]: 0.7041
Sequence: PHMQTYEVDHN [SDHB_Y61_L65H]

Screen [3, 9]: -0.9911
Sequence: NVSILYTASQA [CTNNA1_Y222_P219S]

Screen [3, 9]: -1.497
Sequence: QHVPDYRQNGF [PCDHGA1_Y890_V894G_YF]

Screen [3, 9]: -0.4541
Sequence: TNFSLYLRSLE [MTM1_Y71_R69S_YF]

Screen [3, 8]: 2.11
Sequence: AALRLYHVSDS [VIL1_Y256_K254R]

Screen [3, 8]: -3.766
Sequence: RGVVMYTSKDR [ZG16B_Y136_M133V]

Screen [3, 9]: 1.763
Sequence: RVSSVYTRSTG [CCR5_Y339_A335V]

Screen [3, 9]: -1.292
Sequence: PSSRDYKDNIK [PIGN_Y227_H229D]

Screen [5]: -0.93
Sequence: LVRAFYCERRW [CARD11_Y970_R975W]

Screen [3, 8]: -2.078
Sequence: SFSGEYGSGGG [ZG16_Y30_G32S_YF]

Screen [4]: -0.841
Screen [5]: -0.6493
Sequence: HEEDNYIEMIP [NWD2_Y566_L569M]

Screen [4]: -0.2324
Sequence: DGPVNYEEFVQ [CALM2_Y139_Q136P]

Screen [5]: -1.049
Sequence: LEQDEYALHSH [HADHB_Y244_R247H]

Screen [3, 9]: -0.1377
Sequence: EWLRRYLKNGK [HLA-C_Y195_E197K]

Screen [3, 9]: -2.007
Sequence: KGEDFYFVTCH [FHL1_Y149_C150Y_YF]

Screen [4]: 1.02
Sequence: QDEHGYISLCF [HSPB1_Y133_R136L]

Screen [3, 8]: -2.22
Sequence: PGVNFYFQVSA [TTN_Y28166_R28168Q_YF]

Screen [4]: 1.13
Screen [1, 6]: 3.7
Sequence: NHQFDYTFHWT [CSNK1A1_Y294_D297H_YF]

Screen [1, 6]: -0.4486
Sequence: MASISYDFCRV [BST2_Y6_T4I_YF]

Screen [3, 9]: 0.663
Sequence: HCFAAYFQQGD [GPI_Y351_R347C]

Screen [3, 9]: 0.4405
Sequence: EAGKVYLKAAM [CBFB_Y96_P100A]

Screen [3, 9]: -1.954
Sequence: SLDLSYFHTSS [EMD_Y181_P183H_YF]
